# Several values for one entry are separate records, joined by “and”; a condition that tells them apart may be missing. Equal values may be shown once.
# Key:
# Varroa destructor [1] = experiment: Experiment 3 dose response cage test (50 bees, 25 mites): mite survival; format: in vivo
# Description: (§1) LiCl was added to 70% sucrose solution to final concentrations of 16 μM, 80 μM, 400 μM, 2 mM, 10 mM, 50 Mm, and 250 mM, respectively. 2 ml of the respective solution was fed to the bees, if the sucrose/LiCl solution was entirely ingested additional sucrose syrup was offered ad libidum. Uptake of LiCl solution as well as survival rate of bees and mites was monitored 3 times daily (morning, noon, evening). Additionally, the healthiness of bees was scored based on characteristic behavioral features. LiCl was administered until all mites were dead, and the experiment continued with plain sucrose syrup to record the response of bees over the entire 2 weeks of the experiment. For control bees treated with sucrose syrup only, 9 mites died within the course of the experiment with even timely distribution of the events, indicating natural death of mites. 26 bees died in the same period of time. In view of the life span of a worker bee (4 weeks) this relates to the natural death rate that can be expected in a time span of 14 days. However, 12 bees were lost in a single day equaling almost 50% of the total bee loss in this control experiment. […] For that reasons the sudden loss of bees on day 14 is considered to result from a mistake in bee treatment as feeding inappropriate amounts of sucrose syrup. (See FIG. 4, dotted red line)
# (§2) Additionally, we set out to test activity of a single dose on mite viability. Sucrose with 25 mM LiCl was fed to a cage of 50 bees infested with 25 mites and monitored as described above. […] As such, a single dose of LiCl can be used to kill mites under the described conditions.
# (§3) To explore the upper limit of dosage and limits of tolerability of bees we fed sucrose containing 100 mM of LiCl as only food source over 14 days. […] In view of the latter results the effective window for concentration and administration and regimen of LiCl is sufficiently large to elevate low but effective concentrations (10 mM) more than 10 fold or prolong the time of administration substantially without negative impact on bee health.
# bees [2] = experiment: Experiment 3 dose response cage test (50 bees, 25 mites): bee survival and health; format: in vivo, Apis mellifera
# Description: as §1, §2, §3
# Varroa destructor [3] = experiment: Experiment 7 mini-hives (2000 to 3000 bees), semi-field conditions; format: in vivo; details: remaining mites killed with Perizin and counted
# Description: In order to investigate if the miticidal effect of LiCl can also be detected under semi-field conditions, so-called “mini-hives” consisting of 2000 to 3000 bees each were treated with LiCl.
# LiCl was dissolved in 70% sucrose to final concentrations of 2 mM, 10 mM and 25 mM. Each concentration was replicated 6 times and fed to the bees for 23 days. Dead mites were documented daily. After 23 days of LiCl treatment, remaining mites were killed with Perizin® (commercial product containing the active ingredient coumaphos) and counted (see Table 4 “Remaining mites”).
# bees [4] = details: 50 bees per cage, mean of 6 cages (LiCl) or 3 cages
# Description: (§4) In a further experiment LiCl, NaCl and MgCl2 were selected and their acaricidal activity compared. The experiment was performed in cages of 50 bees, to each of which 25 mites were added. Bees in control cages received sucrose only. LiCl, NaCl or MgCl2 were added to 70% sucrose solutions at a final concentration of 25 mM each and fed to the bees for seven days. Survival rate of bees and mites were monitored daily. Dead bees and mites were removed from the cages.
# (§5) The numbers represent mean values derived from 6 cages. […] Numbers for NaCl, MgCl2 and control represent mean values derived from 3 separate cages.
# Varroa destructor [5] = experiment: Experiment 9 artificial swarms: mite fall; format: in vivo; details: 25 mM or 50 mM
# Description: Six artificial swarms were fed with sucrose/LiCl after a starving phase of several hours. LiCl was dissolved in sucrose at final concentrations of 25 mM and 50 mM. Each artificial swarm received 500 ml of the sucrose/LiCl mixture in a feeding balloon. The total volume of sucrose/LiCl solution was consumed by the bees. Mite fall was monitored for 7 days. Afterwards, bees were treated with Perizin® to assess the number of remaining mites.
# Varroa mites = experiment: Experiment 5 cage comparison of LiCl, NaCl and MgCl2: dead mites; format: in vivo, Varroa destructor
# Description: as §4, §5
# Varroa destructor [6] = experiment: Experiment 2 cage test (50 bees, 20 mites): dead mites; format: in vivo; details: 25 mM in 70% sucrose
# Description: (§6) The next set of experiments was carried out in plastic container with 50 bees and 20 mites each. Bees were fed the same amount of unspecific dsRNA that has been used in previous assays in 70% sucrose solution, LiCl at a concentration of 25 mM in 70%, sucrose solution, and 70% sucrose solution only.
# honey bee larvae = experiment: Experiment 8 larval development in vitro; format: in vivo, Apis mellifera
# Description: In order to assess the effect of LiCl on larval development in vitro, larvae were obtained by caging the queen for 24 h on broodless combs in the colony. After 5 to 6 days when the larvae reached the age of about 48 h they were transferred to petri dishes filled with larval food. The petri dishes were placed in plastic boxed filled with 8% sulfuric acid in order to prevent fungi infection and kept in a chamber at 34° C. and 95% relative humidity. The larvae were fed as needed with a mixture consisting of 53% royal jelly, 4% glucose, 8% fructose, 1% yeast extract and water (control). For samples treated with LiCl, 10 mM, 25 mM or 50 mM LiCl were added to the mixture. Prior to the pupa phase, the larvae were placed on a tissue for defecating which occurred approximately on day 9. Afterwards larvae were placed in well plates until hatching. Larvae mortality was monitored on a daily basis.
# bees [7] = details: 25 mM in 70% sucrose; 50 bees
# Description: as §6
# [8] = 100 mM as only food source over 14 days
# [9] = 250 mM in 70% sucrose, 25 mites
# [10] = 25 mM in 70% sucrose for seven days
# [11] = 25 mM in 70% sucrose for seven days, 25 mites per cage, mean of 6 cages (LiCl) or 3 cages
smiles,measurement,setting,value
"[Cl-].[Li+] [LiCl, lithium chloride]",mites that survived the treatment,"Varroa destructor [1]; 2 mM, 25 mites, 2 weeks",11 mites
same,time in which all mites were killed,"Varroa destructor [1]; 10 mM in 70% sucrose, 25 mites",≤ 48 h
same,additional mites found dead at the end of the experiment,"Varroa destructor [1]; 10 mM, 25 mites",2 mites
same,"dead mites, day 1","Varroa destructor [1]; 10 mM, 25 mites",3 mites
same,"dead mites, day 2","Varroa destructor [1]; 10 mM, 25 mites",10 mites
same,"dead mites, day 3","Varroa destructor [1]; 10 mM, 25 mites",7 mites
same,"dead mites, day 4","Varroa destructor [1]; 10 mM, 25 mites",3 mites
same,time to all mites dead,"Varroa destructor [1]; 50 mM in 70% sucrose, 25 mites",48 h
same,effect on mites,Varroa destructor [1]; [8],effectively killed
same,mites lost between 30 h and 48 h,Varroa destructor [1]; [9],21/25
same,time to loss of all mites,Varroa destructor [1]; [9],≤ 48 h
same,impact on viability of mites,"Varroa destructor [1]; concentrations lower than 2 mM (16 μM, 80 μM, 400 μM), data not shown",only marginally impacted the viability of mites
same,time to eliminate all mites,Varroa destructor [1]; concentrations of 10 mM and higher,≤ 4 days
same,time in which mites were effectively killed,"Varroa destructor [1]; single dose of sucrose with 25 mM, 50 bees, 25 mites",≤ 72 h
same,tolerance by bees,bees [2]; 2 mM over a period of 2 weeks,without pronounced decrease in viability
same,bees that survived the treatment,"bees [2]; 2 mM, 50 bees, 2 weeks",42 bees
same,bees alive at the end of the experiment,"bees [2]; 10 mM, 50 bees, 2 weeks",34 bees
same,tolerability by the bees,"bees [2]; 50 mM, 50 bees",good tolerability
same,bees lost in the timespan of the entire experiment,"bees [2]; 50 mM, 50 bees, 2 weeks",20 bees
same,effect on bees,bees [2]; [8],time delayed continuous loss of bees
same,average rate of bee loss,"bees [2]; 250 mM until all mites dead, then sucrose only, 50 bees",3 bees per day
same,bees lost in total,"bees [2]; 250 mM until all mites dead, then sucrose only, 50 bees, 2 weeks",27 bees
same,impact on bee health,"bees [2]; single dose of sucrose with 25 mM, entire experiment",no negative impact on bee health
same,Remaining mites,Varroa destructor [3]; 2 mM in 70% sucrose for 23 days,234
same,Remaining mites,Varroa destructor [3]; 10 mM in 70% sucrose for 23 days,54
same,Remaining mites,Varroa destructor [3]; 25 mM in 70% sucrose for 23 days,24
same,"Number of dead bees, Day 1",bees [4]; [10],0.2
same,"Number of dead bees, Day 2",bees [4]; [10],0.2
same,"Number of dead bees, Day 3",bees [4]; [10],0.3
same,"Number of dead bees, Day 4",bees [4]; [10],0.8
same,"Number of dead bees, Day 5",bees [4]; [10],0.5
same,"Number of dead bees, Day 6",bees [4]; [10],1.0
same,"Number of dead bees, Day 7",bees [4]; [10],0.2
same,"Number of dead bees, Sum","bees [4]; 25 mM in 70% sucrose, days 1-7",3 and 3.2
same,acaricidal efficacies for all six swarms,Varroa destructor [5],above 80%
same,acaricidal effect,Varroa mites; [10],strong acaricidal effect
same,"Number of dead mites, Day 1",Varroa mites; [11],0.3
same,"Number of dead mites, Day 2",Varroa mites; [11],2.2
same,"Number of dead mites, Day 3",Varroa mites; [11],19.2
same,"Number of dead mites, Day 4",Varroa mites; [11],3.0
same,"Number of dead mites, Day 5",Varroa mites; [11],0.3
same,"Number of dead mites, Day 6",Varroa mites; [11],0.0
same,"Number of dead mites, Day 7",Varroa mites; [11],0.0
same,"Number of dead mites, Sum","Varroa mites; 25 mM in 70% sucrose, days 1-7, 25 mites per cage, mean of 6 cages (LiCl) or 3 cages",25.0
same,mites dead after 24 h,Varroa destructor [6],4 mites
same,mites dead after 48 h,Varroa destructor [6],15 mites
same,mites dead after 72 h,Varroa destructor [6],20 mites
same,Survival rate (%) of larvae or pupae,honey bee larvae; 10 mM added to larval food,0%
same,time in which all larvae were lost,"honey bee larvae; 10 mM, 25 mM or 50 mM added to larval food",≤ 72 h
same,Survival rate (%) of larvae or pupae,honey bee larvae; 25 mM added to larval food,0%
same,Survival rate (%) of larvae or pupae,honey bee larvae; 50 mM added to larval food,0%
same,effect on bees within the first 4 days of treatment,bees [7],not affected

# From patent publication US10980238B2, “Alkali metal salt for use in treatment of varroa destructor mite infestation of honey bees” (Universität Hohenheim, priority 2015, dated 2021)
